The text below walks through data of patent publication US6916803B2, “3-(Heteroaryl acetamido)-2-oxo-azetidine-1-sulfonic acids derivatives as antibacterial agents” (Pantherix, Ltd., priority 2000, dated 2005).

What all share (assay): MIC, standard microbroth dilution method (NCCLS)
Common to all, as to type: cell-based

One assay deals with C. freundii K 500. Particulars: Citrobacter freundii, K500. The procedure: (§1) The compounds of the present invention were tested for minimum inhibitory concentration (MIC) against the bacteria listed in Table-1 according to the standard microbroth dilution method as described in NCCLS document. The minimum inhibitory concentration is expressed in μg/ml.
The next assay relates to E. cloaacae S 480-2. The procedure:
as §1

For the next assay, the system named is E. coli TEM-2. The following applies: Escherichia coli, TEM2. On the procedure:
as §1

The test system of another assay is K pneumoniae K-1150. On the procedure: as §1
A further assay has as its system M Morganii K 1250. On the procedure:
as §1

The next assay has as its system P. aeruginosa PD 2721. Particulars: Pseudomonas aeruginosa, PD2721. The procedure: as §1
The test system of a further assay is P. aeruginosa S 1598. The following applies: Pseudomonas aeruginosa, S1598. On the procedure:
as §1

The next assay concerns P. aeruginosa CL 1267. Particulars: Pseudomonas aeruginosa, CL1267. The procedure:
as §1

≈ marks a conversion by molar mass, not a printed value. Where two headings read alike, the source gives them in different places.

As usually defined, the MIC is the lowest concentration found to suppress growth.

Turning to `C[C@H]1[C@H](NC(=O)/C(=N\OC(C)(C)C(=O)O)c2csc(N)n2)C(=O)N1S(=O)(=O)O` [Aztreonam, reference compound], the MIC against C. freundii K 500 was determined as 0.13 µg/mL (≈ 0.299 µM); with E. cloaacae S 480-2, 0.13 µg/mL (≈ 0.299 µM); in the assay with E. coli TEM-2 (E. coli TEM-2, read-out: MIC) it was 0.06 µg/mL (≈ 0.138 µM); with K pneumoniae K-1150, 0.06 µg/mL (≈ 0.138 µM); with M Morganii K 1250 it was 0.06 µg/mL (≈ 0.138 µM); against P. aeruginosa PD 2721, 64 µg/mL (≈ 147 µM). In the assay on P. aeruginosa S 1598, the MIC was 32 µg/mL (≈ 73.5 µM).
In the case of `NC(=O)OCC1C(NC(=O)/C(=N\OCc2cc(=O)c(O)cn2O)c2csc(N)n2)C(=O)N1S(=O)(=O)[O-].[Na+]` (stereo not drawn) [Example 2, 3-[2-(2-Aminothiazol-4-yl)-(Z)-2-{(1,5-dihydroxy-4-pyridon-2-ylmethoxy)imino}-acetamido]-4-carbamoyloxymethyl-2-azetidinone-1-sulfonic acid, sodium salt], the MIC is 0.5 µg/mL against C. freundii K 500; 0.25 µg/mL against E. cloaacae S 480-2; 0.06 µg/mL with E. coli TEM-2; 0.06 µg/mL in the assay on K pneumoniae K-1150; 0.13 µg/mL in the assay with M Morganii K 1250; 0.06 µg/mL in the assay with P. aeruginosa CL 1267. Moreover, the MIC in the assay with P. aeruginosa PD 2721 is 128 µg/mL; with P. aeruginosa S 1598, 0.13 µg/mL.
For `Nc1nc(/C(=N/OCc2cc(=O)c(O)cn2O)C(=O)NC2C(=O)N(S(=O)(=O)[O-])C2CF)cs1.[Na+]` (stereo not drawn) [Example 3, 3-[2-(2-Aminothiazol-4-yl)-(Z)-2-{(1,5-dihydroxy-4-pyridon-2-yl-methoxy)imino}-acetamido]-4-fluoromethyl-2-azetidinone-1-sulfonic acid, sodium salt], the MIC turned out to be 0.5 µg/mL in the assay on C. freundii K 500; 2 µg/mL in the assay with E. cloaacae S 480-2; 0.06 µg/mL in the assay on E. coli TEM-2; 0.06 µg/mL in the assay on K pneumoniae K-1150; 0.06 µg/mL against M Morganii K 1250; 0.06 µg/mL against P. aeruginosa CL 1267. The MIC in the assay with P. aeruginosa PD 2721 is 32 µg/mL; in the assay on P. aeruginosa S 1598, 0.13 µg/mL.
`NC(=O)OC[C@@H]1[C@H](NC(=O)/C(=N\OCC(=O)O)c2csc(N)n2)C(=O)N1S(=O)(=O)O` [Carumonam, reference compound]: the MIC turned out to be 0.06 µg/mL (≈ 0.129 µM) against C. freundii K 500; 0.06 µg/mL (≈ 0.129 µM) against E. cloaacae S 480-2; 0.06 µg/mL (≈ 0.129 µM) in the assay with E. coli TEM-2 (E. coli TEM-2, read-out: MIC); 0.06 µg/mL (≈ 0.129 µM) against K pneumoniae K-1150; 0.06 µg/mL (≈ 0.129 µM) against M Morganii K 1250; 8 µg/mL (≈ 17.2 µM) with P. aeruginosa CL 1267. Further, the figures for the MIC against P. aeruginosa PD 2721 and in the assay on P. aeruginosa S 1598 were 32 µg/mL (≈ 68.6 µM) and 8 µg/mL (≈ 17.2 µM), respectively.
In the case of `C[C@H]1[C@H](NC(=O)/C(=N\OCc2cc(=O)c(O)cn2O)c2csc(N)n2)C(=O)N1S(=O)(=O)[O-].[Na+]` [Example 1], the MIC in the assay on C. freundii K 500 came to 0.13 µg/mL; against E. cloaacae S 480-2, 0.06 µg/mL; in the assay with E. coli TEM-2, 0.06 µg/mL; with K pneumoniae K-1150 it was 0.13 µg/mL; with M Morganii K 1250 it was 0.06 µg/mL; against P. aeruginosa CL 1267, 0.06 µg/mL. Also, the values for the MIC with P. aeruginosa PD 2721 and in the assay with P. aeruginosa S 1598 were 4 µg/mL and 0.13 µg/mL, respectively.
